{
  "source": "patent US7169393B2",
  "about": "“Antigenic peptide fragments of VapA protein, and uses thereof” (Rural Industries Research & Development Coporation, priority 2000, dated 2007)",
  "system": "antibodies in sera of foals (goat anti-horse IgG detection)",
  "experiment": "Peptide ELISA: biotinylated overlapping VapA peptides screened with foal sera",
  "assay_type": "binding",
  "conditions": "for number of positive sera recognizing (positive with) the peptide: fifty-one positive sera (foals with current R. equi disease), 1 in 250, positive = at least twice background OD at 450 nm",
  "source_text": "Biotinylated peptides synthesized by Mimotopes, Victoria, Australia were used in all assays. The peptide bank used in the initial screening of sera was designed based upon the published sequence of VapA (Genbank accession No: D21236). A total of 50 overlapping peptides, each 11 amino acid residues in length (offset by 3 residues at a time) were synthesized beginning from the predicted signal peptide cleavage site between amino acids 31 and 32 up to and including the C terminus.\nA total of seventy foal sera, most of these from animals aged between 4 to 12 weeks, were used to screen the peptides. Fifty-one sera were from foals with current R. equi disease (positive sera). Sixteen sera were from foals with no known history of R. equi infection and three sera were from foals that had recovered from R. equi infection 10 months previously (negative sera). Thirty-nine of the positive sera and all negative sera were obtained from studs in South Australia and New South Wales, Australia.\nBiotin-SGSG(spacer) labelled peptide units were used as antigen targets. Neutravidin bound to the surface of a micro-titre plate was then used to bind the biotin labelled peptide to the plate. The procedure is as follows:\nA solution of neutravidin was diluted 1 in 300 in sterile distilled water to a final concentration of 3.3 μg/ml, and 100 μl per well was added to a micro-titre plate and the plate was left overnight at 37° C. 200 μl 1% casein/1×PBS/0.05% Tween 20 was then added to each well and the plate was left for at least 1 hour at room temperature (or at 4° C. if left longer) before the solution in the plate was flicked out. The plate was then washed five times with 1×PBS/0.05% Tween 20 using an automatic plate washer and the plates were dried by slapping against absorbent paper. […]\nThe plate was then read using an ELISA plate reader at 450 nm.\nInterpretation of data. […] The background OD was the mean of the lowest 50% of all OD values obtained with that particular serum and all OD readings that were twice this value were considered positive. […]",
  "data": [
    {"sequence": "NLQKDEPNGRA [Seq I.D. No. 47]", "values": [
      {"measurement": "number of positive sera recognizing (positive with) the peptide", "value": "fifty-one"},
      {"measurement": "number of positive sera positive with only this peptide", "setting": "fifty-one positive sera, fifty-peptide bank", "value": "two"}
    ]},
    {"sequence": "YLNINFFDSSG [Seq I.D. No. 133]", "values": [
      {"measurement": "number of positive sera recognizing (positive with) the peptide", "value": "Ten"}
    ]}
  ]
}
